Assay results reported in publication PMC3933419, “Synthesis and Properties of a Selective Inhibitor of Homeodomain–Interacting Protein Kinase 2 (HIPK2)” (PLoS ONE, 2014).

Experiments:
[1] = target: T1, CK2 (Rattus norvegicus, UniProt P19139); assay: CK2 phosphorylation assay; format: biochemical; details: 20 µM ATP
T1 construct: Native CK2 and CK1 were purified from rat liver; from tissue; host or cells: rat liver
Procedure: (§1) Native CK2 and CK1 were purified from rat liver.
(§2) PIM1, CK2, CK1 phosphorylation assays were performed following similar procedures used for HIPK2 except that preincubation was omitted. In detail, PIM1 activity was determined at 100 µM ATP concentration and in the presence of 30 µM synthetic peptide substrate […]. CK2 and CK1 activities were assayed in a buffer containing 50 mM Tris/HCl (pH 7.5), 100 mM NaCl, 12 mM MgCl2, 100 µM specific peptide substrate […] (for CK2), or 200 µM […] (for CK1) and 20 µM [γ-^33P]ATP (500–1000 c.p.m./pmol).

[2] = test system: Ser46 of p53; assay: Phosphorylation of p53 Ser46 in treated CEM cells (WB); format: cell-based, human; details: 6 h treatment
Procedure: Treatments with TBID were performed in the same medium but with 1% fetal calf serum; control cells were treated with the solvent (DMSO). Total cell lysates were prepared as in [29].
Endogenous HIPK2 activity was evaluated by measuring the phosphorylation level of its target site Ser46 of p53: to this purpose, CEM cells were treated for 6 h as indicated, then lysed. […] Bands were quantified by Carestream Molecular Imaging Software (Kodak) and the obtained values were normalized to total p53 signal with a Cell Signaling Technology antibody; anti-actin (Sigma) was used as loading control.

[3] = target: T2, HIPK2 (Homo sapiens, UniProt Q9H2X6); assay: Kinetic analysis of HIPK2 inhibition (Lineweaver-Burk); format: biochemical
T2 construct: The source of HIPK2 and of all of the other protein kinases used for specificity assays is as described elsewhere
T2 sequence (Q9H2X6 whole entry): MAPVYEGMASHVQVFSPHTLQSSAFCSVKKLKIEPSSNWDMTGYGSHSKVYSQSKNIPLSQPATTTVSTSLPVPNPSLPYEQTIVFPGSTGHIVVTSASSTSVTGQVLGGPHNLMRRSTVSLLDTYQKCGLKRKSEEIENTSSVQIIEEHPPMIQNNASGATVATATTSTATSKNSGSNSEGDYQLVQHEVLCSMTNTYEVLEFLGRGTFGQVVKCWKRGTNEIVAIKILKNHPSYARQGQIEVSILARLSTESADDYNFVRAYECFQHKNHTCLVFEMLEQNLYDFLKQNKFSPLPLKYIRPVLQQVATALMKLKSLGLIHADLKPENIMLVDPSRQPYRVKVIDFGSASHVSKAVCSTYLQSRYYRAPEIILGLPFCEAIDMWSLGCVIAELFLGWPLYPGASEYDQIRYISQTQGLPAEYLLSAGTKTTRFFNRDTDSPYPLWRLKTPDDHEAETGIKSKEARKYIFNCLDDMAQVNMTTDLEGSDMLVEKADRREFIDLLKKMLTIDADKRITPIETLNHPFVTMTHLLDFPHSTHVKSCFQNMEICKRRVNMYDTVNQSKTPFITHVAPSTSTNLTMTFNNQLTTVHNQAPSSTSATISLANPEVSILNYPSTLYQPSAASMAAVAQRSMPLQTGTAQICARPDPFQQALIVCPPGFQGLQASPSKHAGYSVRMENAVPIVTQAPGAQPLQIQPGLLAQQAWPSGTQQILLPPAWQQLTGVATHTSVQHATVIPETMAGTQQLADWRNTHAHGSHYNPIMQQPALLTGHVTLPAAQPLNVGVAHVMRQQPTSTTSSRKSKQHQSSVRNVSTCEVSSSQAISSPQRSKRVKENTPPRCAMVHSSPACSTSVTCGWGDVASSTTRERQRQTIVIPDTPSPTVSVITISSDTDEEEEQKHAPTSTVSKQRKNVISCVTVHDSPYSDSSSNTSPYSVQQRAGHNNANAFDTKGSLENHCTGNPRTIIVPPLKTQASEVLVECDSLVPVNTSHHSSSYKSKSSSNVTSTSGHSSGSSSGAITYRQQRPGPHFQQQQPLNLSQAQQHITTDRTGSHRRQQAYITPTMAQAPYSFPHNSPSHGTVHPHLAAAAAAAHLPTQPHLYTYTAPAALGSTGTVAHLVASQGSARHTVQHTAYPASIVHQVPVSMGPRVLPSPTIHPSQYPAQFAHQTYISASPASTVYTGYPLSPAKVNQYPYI
Procedure: Initial velocities were determined at each of the ATP concentration tested, at 1 mM […] peptide concentration. Km values were calculated either in the absence or in the presence of increasing concentrations of inhibitor, from Lineweaver-Burk double-reciprocal plots of the data. Inhibition constants were then calculated by linear regression analysis of Km/Vmax versus inhibitor concentration plots.

[4] = target: T2, HIPK2; assay: HIPK2 kinase inhibition assay (33P-ATP, peptide […]); format: biochemical; details: 20 µM ATP; in vitro
Procedure: The source of HIPK2 and of all of the other protein kinases used for specificity assays is as described elsewhere. […] The reaction was stopped by addition of 5 μl of 0.5 M orthophosphoric acid before spotting aliquots onto phosphocellulose filters. Filters were washed in 75 mM phosphoric acid (5-10 ml/each) four times and then once in methanol and dried before counting.

[5] = target: T3, PIM1 (Homo sapiens, UniProt P11309); assay: PIM1 phosphorylation assay; format: biochemical; details: 100 µM ATP
T3 construct: The source of HIPK2 and of all of the other protein kinases used for specificity assays is as described elsewhere
Procedure: as §2

[6] = target: EPH-B4 (Homo sapiens, UniProt P54760); assay: Kinase panel selectivity profiling; format: biochemical; details: TBID 1 μM, 125 kinase panel, read-out: % activity of the enzyme
From the text: (§3) The source of HIPK2 and of all of the other protein kinases used for specificity assays is as described elsewhere.
(§4) Conditions for the activity assays of all other protein kinases tested in selectivity experiments are as described or referenced in [9].

[7] = target: MKK1 (Homo sapiens, UniProt Q02750); assay: Kinase panel selectivity profiling; format: biochemical; details: TBID 1 μM, 125 kinase panel, read-out: % activity of the enzyme
From the text: as §3, §4

[8] = target: CDK2-Cyclin A (Homo sapiens, UniProt P24941); assay: Kinase panel selectivity profiling; format: biochemical; details: TBID 1 μM, 125 kinase panel, read-out: % activity of the enzyme
From the text: as §3, §4

[9] = target: S6K1 (Homo sapiens, UniProt P23443); assay: Kinase panel selectivity profiling; format: biochemical; details: TBID 1 μM, 125 kinase panel, read-out: % activity of the enzyme
From the text: as §3, §4

[10] = target: IKKe (Homo sapiens, UniProt Q14164); assay: Kinase panel selectivity profiling; format: biochemical; details: TBID 1 μM, 125 kinase panel, read-out: % activity of the enzyme
IKKe, sequence (Q14164 whole entry): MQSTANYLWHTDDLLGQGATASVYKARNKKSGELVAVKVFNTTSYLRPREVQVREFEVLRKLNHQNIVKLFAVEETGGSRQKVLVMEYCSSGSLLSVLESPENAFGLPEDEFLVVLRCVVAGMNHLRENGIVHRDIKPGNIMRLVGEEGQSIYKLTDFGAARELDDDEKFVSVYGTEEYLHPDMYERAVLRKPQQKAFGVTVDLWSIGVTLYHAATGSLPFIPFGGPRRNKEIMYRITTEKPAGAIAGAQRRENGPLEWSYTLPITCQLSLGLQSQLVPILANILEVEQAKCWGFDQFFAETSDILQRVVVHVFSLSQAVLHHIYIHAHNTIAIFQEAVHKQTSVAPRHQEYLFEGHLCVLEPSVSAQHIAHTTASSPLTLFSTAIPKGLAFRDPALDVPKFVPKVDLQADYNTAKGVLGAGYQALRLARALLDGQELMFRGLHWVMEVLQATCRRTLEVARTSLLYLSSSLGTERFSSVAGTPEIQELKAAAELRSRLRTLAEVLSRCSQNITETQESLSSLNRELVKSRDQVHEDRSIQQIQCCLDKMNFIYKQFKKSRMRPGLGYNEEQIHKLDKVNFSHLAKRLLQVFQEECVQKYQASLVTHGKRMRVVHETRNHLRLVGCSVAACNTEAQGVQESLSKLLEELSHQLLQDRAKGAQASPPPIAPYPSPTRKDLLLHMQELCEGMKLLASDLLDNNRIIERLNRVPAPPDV
From the text: as §3, §4

[11] = target: IGF-1R (Homo sapiens, UniProt P08069); assay: Kinase panel selectivity profiling; format: biochemical; details: TBID 1 μM, 125 kinase panel, read-out: % activity of the enzyme
IGF-1R, sequence (P08069 31-1367): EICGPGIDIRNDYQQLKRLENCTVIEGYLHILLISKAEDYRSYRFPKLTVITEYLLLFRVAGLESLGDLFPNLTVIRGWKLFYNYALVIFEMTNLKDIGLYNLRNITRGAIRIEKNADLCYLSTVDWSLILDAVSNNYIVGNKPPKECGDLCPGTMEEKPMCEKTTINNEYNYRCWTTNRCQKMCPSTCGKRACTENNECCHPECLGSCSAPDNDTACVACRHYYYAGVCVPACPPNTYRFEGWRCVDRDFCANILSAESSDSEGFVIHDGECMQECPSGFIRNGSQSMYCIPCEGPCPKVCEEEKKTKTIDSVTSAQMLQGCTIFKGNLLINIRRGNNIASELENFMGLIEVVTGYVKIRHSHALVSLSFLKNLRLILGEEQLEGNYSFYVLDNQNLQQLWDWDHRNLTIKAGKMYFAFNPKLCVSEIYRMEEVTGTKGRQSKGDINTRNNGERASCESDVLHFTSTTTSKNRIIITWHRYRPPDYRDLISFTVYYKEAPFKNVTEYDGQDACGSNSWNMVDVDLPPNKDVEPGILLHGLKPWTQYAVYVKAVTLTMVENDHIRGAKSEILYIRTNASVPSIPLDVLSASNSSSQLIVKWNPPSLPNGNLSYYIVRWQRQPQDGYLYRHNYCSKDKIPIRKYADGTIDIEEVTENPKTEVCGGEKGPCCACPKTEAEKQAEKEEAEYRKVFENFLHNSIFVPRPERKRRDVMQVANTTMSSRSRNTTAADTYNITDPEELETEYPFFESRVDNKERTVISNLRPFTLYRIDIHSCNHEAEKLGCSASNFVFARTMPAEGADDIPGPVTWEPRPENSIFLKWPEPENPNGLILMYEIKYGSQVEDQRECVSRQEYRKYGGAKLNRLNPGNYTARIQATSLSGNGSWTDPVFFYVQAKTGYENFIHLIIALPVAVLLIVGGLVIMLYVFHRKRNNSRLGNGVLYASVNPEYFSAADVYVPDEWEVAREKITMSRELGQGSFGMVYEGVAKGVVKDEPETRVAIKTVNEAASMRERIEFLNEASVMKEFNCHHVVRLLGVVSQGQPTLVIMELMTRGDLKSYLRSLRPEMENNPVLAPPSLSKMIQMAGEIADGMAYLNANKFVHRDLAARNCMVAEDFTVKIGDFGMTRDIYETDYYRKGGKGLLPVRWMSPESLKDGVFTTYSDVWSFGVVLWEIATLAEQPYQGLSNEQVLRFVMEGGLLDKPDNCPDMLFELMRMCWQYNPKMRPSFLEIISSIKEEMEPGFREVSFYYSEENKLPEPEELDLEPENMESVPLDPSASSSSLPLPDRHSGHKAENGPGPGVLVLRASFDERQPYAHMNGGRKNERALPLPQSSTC
From the text: as §3, §4

[12] = target: MST4 (Homo sapiens, UniProt Q9P289); assay: Kinase panel selectivity profiling; format: biochemical; details: TBID 1 μM, 125 kinase panel, read-out: % activity of the enzyme
From the text: as §3, §4

[13] = target: IRR (Homo sapiens, UniProt P14616); assay: Kinase panel selectivity profiling; format: biochemical; details: TBID 1 μM, 125 kinase panel, read-out: % activity of the enzyme
From the text: as §3, §4

[14] = target: SGK1 (Homo sapiens, UniProt O00141); assay: Kinase panel selectivity profiling; format: biochemical; details: TBID 1 μM, 125 kinase panel, read-out: % activity of the enzyme
From the text: as §3, §4

[15] = target: CHK1 (Homo sapiens, UniProt O14757); assay: Kinase panel selectivity profiling; format: biochemical; details: TBID 1 μM, 125 kinase panel, read-out: % activity of the enzyme
From the text: as §3, §4

[16] = target: SRPK1 (Homo sapiens, UniProt Q96SB4); assay: Kinase panel selectivity profiling; format: biochemical; details: TBID 1 μM, 125 kinase panel, read-out: % activity of the enzyme
From the text: as §3, §4

[17] = target: DAPK1 (Homo sapiens, UniProt P53355); assay: Kinase panel selectivity profiling; format: biochemical; details: TBID 1 μM, 125 kinase panel, read-out: % activity of the enzyme
DAPK1, sequence (P53355 whole entry): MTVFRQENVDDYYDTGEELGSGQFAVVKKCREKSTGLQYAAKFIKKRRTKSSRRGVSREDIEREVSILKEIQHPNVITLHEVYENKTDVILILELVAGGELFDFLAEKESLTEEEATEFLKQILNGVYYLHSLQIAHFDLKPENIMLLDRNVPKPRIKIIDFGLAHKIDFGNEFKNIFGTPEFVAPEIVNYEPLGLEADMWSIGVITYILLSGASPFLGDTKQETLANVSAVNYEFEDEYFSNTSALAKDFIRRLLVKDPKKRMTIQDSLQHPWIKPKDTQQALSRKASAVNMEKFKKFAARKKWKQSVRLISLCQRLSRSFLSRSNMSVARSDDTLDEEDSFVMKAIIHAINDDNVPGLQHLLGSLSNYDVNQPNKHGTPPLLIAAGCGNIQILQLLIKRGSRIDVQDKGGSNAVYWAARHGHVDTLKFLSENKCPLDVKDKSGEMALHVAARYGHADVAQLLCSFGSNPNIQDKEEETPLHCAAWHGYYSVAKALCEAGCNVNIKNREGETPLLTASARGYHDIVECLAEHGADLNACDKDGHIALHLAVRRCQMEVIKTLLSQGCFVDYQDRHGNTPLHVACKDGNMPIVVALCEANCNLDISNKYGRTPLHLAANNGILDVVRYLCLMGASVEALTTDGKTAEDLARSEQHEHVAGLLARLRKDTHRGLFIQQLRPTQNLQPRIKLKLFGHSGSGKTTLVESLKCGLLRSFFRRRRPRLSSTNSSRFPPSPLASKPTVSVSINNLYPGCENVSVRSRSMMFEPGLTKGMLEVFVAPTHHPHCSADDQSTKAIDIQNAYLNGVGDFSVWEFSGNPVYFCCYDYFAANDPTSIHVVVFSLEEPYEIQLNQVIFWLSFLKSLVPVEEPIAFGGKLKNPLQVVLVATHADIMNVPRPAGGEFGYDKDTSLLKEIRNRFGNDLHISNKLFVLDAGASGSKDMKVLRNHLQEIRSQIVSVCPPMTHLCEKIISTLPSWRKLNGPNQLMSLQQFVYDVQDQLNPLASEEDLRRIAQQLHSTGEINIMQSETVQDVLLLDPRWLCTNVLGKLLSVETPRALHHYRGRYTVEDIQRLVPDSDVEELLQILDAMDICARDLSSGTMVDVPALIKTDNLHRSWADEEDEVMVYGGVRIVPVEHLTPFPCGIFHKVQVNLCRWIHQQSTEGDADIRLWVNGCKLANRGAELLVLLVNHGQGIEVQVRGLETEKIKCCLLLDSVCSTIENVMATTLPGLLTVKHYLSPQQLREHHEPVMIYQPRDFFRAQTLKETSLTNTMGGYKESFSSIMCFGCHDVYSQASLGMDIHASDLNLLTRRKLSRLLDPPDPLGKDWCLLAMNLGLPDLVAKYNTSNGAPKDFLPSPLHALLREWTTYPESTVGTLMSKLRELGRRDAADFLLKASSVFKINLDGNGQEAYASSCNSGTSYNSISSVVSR
From the text: as §3, §4

[18] = target: MARK4 (Homo sapiens, UniProt Q96L34); assay: Kinase panel selectivity profiling; format: biochemical; details: TBID 1 μM, 125 kinase panel, read-out: % activity of the enzyme
From the text: as §3, §4

[19] = target: NEK6 (Homo sapiens, UniProt Q9HC98); assay: Kinase panel selectivity profiling; format: biochemical; details: TBID 1 μM, 125 kinase panel, read-out: % activity of the enzyme
From the text: as §3, §4

[20] = target: CK2 (Homo sapiens, UniProt P68400); assay: Kinase panel selectivity profiling; format: biochemical
CK2 (Homo sapiens, UniProt P68400), sequence (P68400 whole entry): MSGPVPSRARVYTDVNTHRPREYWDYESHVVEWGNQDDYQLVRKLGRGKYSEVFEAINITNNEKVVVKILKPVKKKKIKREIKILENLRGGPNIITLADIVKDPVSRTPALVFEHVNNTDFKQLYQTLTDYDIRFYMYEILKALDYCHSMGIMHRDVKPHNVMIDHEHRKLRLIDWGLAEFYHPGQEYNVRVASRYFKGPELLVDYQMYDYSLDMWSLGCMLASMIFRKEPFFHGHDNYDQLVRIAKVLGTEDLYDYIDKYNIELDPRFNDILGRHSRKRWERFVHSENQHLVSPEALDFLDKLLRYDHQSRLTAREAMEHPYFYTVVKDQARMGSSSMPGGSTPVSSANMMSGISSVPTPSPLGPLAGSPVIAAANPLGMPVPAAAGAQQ
From the text: as §3, §4

[21] = target: PKCz (Homo sapiens, UniProt Q05513); assay: Kinase panel selectivity profiling; format: biochemical; details: TBID 1 μM, 125 kinase panel, read-out: % activity of the enzyme
From the text: as §3, §4

[22] = target: TTBK1 (Homo sapiens, UniProt Q5TCY1); assay: Kinase panel selectivity profiling; format: biochemical; details: TBID 1 μM, 125 kinase panel, read-out: % activity of the enzyme
From the text: as §3, §4

[23] = target: MINK1 (Homo sapiens, UniProt Q8N4C8); assay: Kinase panel selectivity profiling; format: biochemical; details: TBID 1 μM, 125 kinase panel, read-out: % activity of the enzyme
From the text: as §3, §4

[24] = target: p38a MAPK (Homo sapiens, UniProt Q16539); assay: Kinase panel selectivity profiling; format: biochemical; details: TBID 1 μM, 125 kinase panel, read-out: % activity of the enzyme
From the text: as §3, §4

[25] = target: IR (Homo sapiens, UniProt P06213); assay: Kinase panel selectivity profiling; format: biochemical; details: TBID 1 μM, 125 kinase panel, read-out: % activity of the enzyme
From the text: as §3, §4

[26] = target: CAMK1 (Homo sapiens, UniProt Q14012); assay: Kinase panel selectivity profiling; format: biochemical; details: TBID 1 μM, 125 kinase panel, read-out: % activity of the enzyme
From the text: as §3, §4

[27] = target: TSSK1 (Homo sapiens, UniProt Q9BXA7); assay: Kinase panel selectivity profiling; format: biochemical; details: TBID 1 μM, 125 kinase panel, read-out: % activity of the enzyme
From the text: as §3, §4

[28] = test system: CK1; assay: CK1 phosphorylation assay; format: biochemical, rat; details: 20 µM ATP
Procedure: as §1, §2

[29] = test system: panel of 76 protein kinases; assay: Selectivity parameters (Lorenz curve, Gini coefficient, hit rate) of TBID; format: biochemical
Procedure: as §4
Lorenz curves were derived from the selectivity data. Gini coefficients and hit rates (expressing the percent of kinases inhibited >50% by a given compound) were calculated as described in [25].

With `O=C1c2c(Br)c(Br)c(Br)c(Br)c2C(=O)N1c1ncc[nH]1` [TBID, 4,5,6,7-Tetrabromo-2-(1H-imidazol-2-yl)isoindoline-1,3-dione] the IC50 [1] was 5.5 µM, the “phosphorylation level of p53 Ser46” value [2] was “markedly reduces” and the Ki [3] was 0.2 µM. For the same compound, the “mode of inhibition of HIPK2” value ([3]; with respect to ATP) was “competitive with respect to ATP”, the IC50 [4] was 0.33 µM and the IC50 [5] was > 40 µM. The activity at 1 µM [6] was 114%, the activity at 1 µM [7] was 115% and the activity at 1 µM [8] was 98%. It also gave an activity at 1 µM [9] of 94%, an activity at 1 µM [10] of 85% and an activity at 1 µM [11] of 68%. The activity at 1 µM [12] was 108%, the activity at 1 µM [13] was 100% and the activity at 1 µM [14] was 98%. The activity at 1 µM [15] was 102%, the activity at 1 µM [16] was 77% and the activity at 1 µM [17] was 92%. The activity at 1 µM [18] was 95%, the activity at 1 µM [19] was 105% and the remaining activity at 10 µM ([20]; 10 µM TBID, panel of 76 protein kinases, read-out: residual activity) was 48%. It also gave an activity at 1 µM ([20]; TBID 1 μM, 125 kinase panel, read-out: % activity of the enzyme) of 87%, an activity at 1 µM [21] of 104% and an activity at 1 µM [22] of 113%. For the same compound, the activity at 1 µM [23] was 91%, the activity at 1 µM [24] was 88% and the activity at 1 µM [25] was 101%. For the same compound, the activity at 1 µM [26] was 78%, the activity at 1 µM [27] was 109% and the IC50 [28] was > 40 µM. The “number of kinases inhibited >90%” value ([29]; 10 µM TBID) was 1, the Gini coefficient ([29]; 10 µM, 76 PKs) was 0.592 and the Hit rate ([29]; 10 µM, 76 PKs, kinases inhibited >50%) was 0.10.
